The text below walks through data of US10081609B2, “Compounds for inducing proliferation and differentiation of cells, and methods of use thereof” (The Broad Institute, Inc., priority 2013, dated 2018).

Series [1] deals with human primary hepatocytes. The experiment in a line: High-throughput liver platform, primary screening: secreted albumin by competitive ELISA. In kind it is cell-based. The text has this: In order to evaluate the phenotype of treated cells, a secondary readout was included to quantify hepatocyte functions via competitive ELISA. This biochemical assay measured the level of secreted albumin as a marker for protein synthesis functions of the cultured hepatocytes (FIG. 1A bottom).
FIG. 1B top summarizes the workflow of the screen. Primary screening was done on human primary hepatocytes, preconditioned for seven days by non-parenchymal cells in the screening platform. Upon stabilization in vitro, cultures were treated with the chemical library for 48 hours. All compounds were tested in duplicates, at a single concentration of 15 μM. This single concentration was selected via a pilot screen of ˜2,000 small molecules. All 12,480 small molecules were initially tested on a single donor of cryopreserved hepatocytes (donor a) in order to eliminate noise from donor-to-donor variability. Following compound treatment, media supernatants were collected for functional analyses via ELISA and cultures were fixed in 4% paraformaldehyde for proliferation analyses via imaging.
(In general: In an ELISA, binding on a coated surface is turned into a signal by an enzyme label.)

For series [2], the system named is iHeps. The series can be described thus: Differentiation of human iPS-derived hepatocytes (iHeps): morphology and immunofluorescent staining. In kind it is cell-based. The protocol:
(§1) The ability of compounds of the invention to affect the differentiation and maturation of iHeps was tested. Undifferentiated iPS cells were cultured on Matrigel, supported by primary mouse embryonic fibroblasts. Once confluent, iPS cells were transitioned to differentiation media, with sequential addition of growth factors (Activin A, BMP-4, bFGF, HGF, and OSM) to guide differentiation, first into endoderm, then into hepatic progenitor cells and finally into iHeps. Compound treatment started on day 21 post initiation of differentiation and acted over a period of 9 days. FH1 and FPH2 were used to treat iHeps. FH1 doubled albumin secretion during primary screening (FIG. 4A left) in a dose-responsive manner (FIG. 4A right).
To examine the effects of FH1 and FPH2 at the protein level, AFP, albumin and CYP3A4 levels weew visualized via immunofluorescent staining. […] This is in agreement with primary screening results as well as earlier morphological findings. Untreated cultures had islands that double stain for albumin and the fetal marker AFP, with very little presence of the mature marker CYP3A4.

In series [3] the test system is iHeps. The experiment in a line: Gene expression profiles of treated iHeps (Luminex). In kind it is cell-based, human. The protocol: Cells were lysed using RLT buffer (Qiagen) or Trizol (Invitrogen) and purified using the Mini-RNeasy kit (Qiagen). Gene expression was determined using Luminex analysis, as previously described. Briefly, total RNA was immobilized on a Qiagen turbo capture 384-well plate, and reverse-transcribed using oligodT priming A biotinylated FlexMap tag sequence unique to each gene of interest and a phosphorylated downstream probe were then added to resulting cDNAs to generate biotinylated FlexMap-tagged amplicons. Universal PCR was then performed for 35 cycles using a biotinylated T7 forward primer and T3 reverse primer in buffer with dNTPs and Taq polymerase. FlexMap microsphere beads conjugated with antitag oligonucleotides were then added and allowed to hybridize. Amplicons were captured by streptavidin-phyoerythrin, and 100 events per bead were analyzed for internal bead color and phyoerythrin reporter fluorescence on a Luminex FlexMap 3D analyzer. Data for replicate loadings, expressed in mean fluorescent intensity of at least 100 beads per sample, were scaled to the human transferrin gene and row-normalized for heat map representation using GeneE open software (Broad Institute).
as §1
Euclidian clustering analyses groups untreated cells with fetal hepatocytes and treated cells with mature hepatocytes (FIG. 4C left). Of particular interest are ABC transporters, CYP3A4 and GSTP1 expression levels. ABC transporters are known to mature after birth. ABCB11, also known as bile-salt export pump (BSEP), increased ˜3 fold and ˜4 fold in expression levels with FPH2 and FH1 treatment, respectively, compared to untreated iHeps. In contrast, GSTP1 expression, whose levels decrease with maturity, remained low upon FPH2 and FH1 treatment compared to untreated iHeps (FIG. 4C right).

Series [4] has as its system iHeps. The experiment in a line: CYP450 activities of treated iHeps through isoenzyme-specific probes. Format: cell-based, human. The protocol: Culture media were collected and frozen at −20° C. until analysis. Albumin content was measured through sandwich ELISA assays (MP Biomedicals, Fitzgerald, Bethyl Laboratories) using horseradish peroxidase detection and 3,3′,5,5′-tetramethylbenzidine (TMB, Fitzgerald Industries) as a substrate. Urea concentration was determined colorimetrically using diacetylmonoxime with acid and heat (Stanbio Labs). To quantify CYP450 activity, at 48 hours after small molecule exposure, cultures were incubated with substrates (coumarin from Sigma for CYP2A6, luciferin-IPA from Promega for CYP3A4) for 4 hours at 37° C. Incubation medium was collected and metabolite concentration quantified via luminescence, or fluorescence after hydrolization of potential metabolite conjugates by β-glucuronidase/arylsulfatase (Roche, Ind.).
The ability of compounds of the invention to affect the differentiation and maturation of iHeps was tested. Undifferentiated iPS cells were cultured on Matrigel, supported by primary mouse embryonic fibroblasts. […]
To confirm the staining results, secreted levels of albumin and AFP via ELISA, and CYP450 activities through isoenzyme-specific probes that are either fluorescent or luminescent were measured. […]

In series [5] the test system is transgenic lfabp:GFP zebrafish. The series can be described thus: Liver development in transgenic lfabp:GFP zebrafish embryos. Format: in vivo. Conditions: exposure 24 to 72 hrs post fertilization. The text has this:
The effects of FH1 and PH1 on liver development were examined in transgenic lfabp:GFP zebrafish, in which GFP expression is restricted to the liver. Zebrafish embryos were allowed to develop normally for 24 hrs post fertilization and then exposed to either FH1 or PH1 until 72 hrs post fertilization (FIG. 8A). Livers were visualized by whole-mount fluorescence imaging (FIG. 8B) and lfabp in situ hybridization (FIG. 8C).

Series [6] relates to lfabp:GFP zebrafish embryos. The experiment in a line: Survival of zebrafish embryos after a fatal dose of APAP. Format: in vivo. Conditions: 10 mM APAP concurrently with compound, from 72 hrs post fertilization. The protocol: The effect of FH1 on zebrafish survival following APAP-induced toxicity was examined. lfabp:GFP zebrafish embryos were allowed to develop normally for 72 hrs post fertilization and then exposed to a fatal dose of 10 mM APAP concurrently with FH1 (FIG. 9A).

Series [7] deals with lfabp:GFP zebrafish embryos. The series can be described thus: Therapeutic window after a non-fatal dose of APAP in zebrafish embryos (liver size). Format: in vivo. To be noted: 5 mM APAP for 24 hrs before 24 hour treatment. The procedure:
The current clinical treatment for APAP toxicity is the administration of NAC, which has a limited window of efficacy. To examine the therapeutic window of FH1 and PH1 efficacy, lfabp:GFP zebrafish embryos were allowed to develop normally for 48 hrs post fertilization, and then exposed to a non-fatal dose of 5 mM APAP for 24 hrs before initiation of treatment with FH1 or PH1 for an additional 24 hour period (FIG. 10A).

Series [8] concerns iPS-derived endothelial cells. The series can be described thus: Differentiation of iPS-derived endothelial cells (nitric oxide). In kind it is cell-based. The protocol:
Cells were assayed for nitric oxide (NO), a mature marker for endothelial cells. CB=FPH2, M=FH1, E=PH1, while Null and DMSO are control runs with no additive and vehicle only, respectively.

The test system of series [9] is lfabp:GFP zebrafish embryos. To be noted: clinical treatment for APAP toxicity; cited from earlier work.

With `CC(=O)Nc1ccc(Cc2ccc(NC(C)=O)cc2)cc1` [FH1, N,N′-(methylenebis(4,1-phenylene))diacetamide], the “albumin secretion during primary screening” value in [1] is “doubled”. Also, the “staining of treated islands for albumin, CYP3A4 and AFP” value in series [2] (immunofluorescent staining) is “double stained strongly for albumin and CYP3A4, with very minimal presence of AFP”. Also, in series [2] (treated iHeps), the “albumin staining (immunofluorescent)” value is listed as “dramatic increases”. Moreover, the “hepatocyte phenotype of treated iHeps” value in series [2] (treatment from day 21, 9 days) is on record as “more mature hepatocyte phenotypes”. In series [3], the “ABCB11 (BSEP) expression level increase compared to untreated iHeps” value is approximately 4 fold and the “GSTP1 expression compared to untreated iHeps” value is recorded as “remained low”. In series [4], the CYP3A4 activity increase was 16 times. For the same compound, the “liver size compared to DMSO-treated controls” value in series [5] is given as “increased”. In addition, the survival of embryos in [6] came out at 71%. Moreover, the “embryonic liver size / liver mass after APAP compared to controls” value in [7] is “mitigated APAP-induced loss of liver mass”. Also, in [8], the “differentiation of iPS-derived endothelial cells (nitric oxide)” value is “induce differentiation”.
On to `CC(=O)N[C@@H](CS)C(=O)O` [NAC], for which the typical therapeutic window in [9] was approximately 8 h.
